Usually IC50 stands for the concentration at which inhibition is half-maximal. Read a high IC50 as weaker potency in that assay.

Read-outs that look alike come from different tables or passages of the source. Bounds are passed on as bounds.

This experiment has as its system RSL3. The experiment can be described thus: IC50 (RSL3), Table 1. In kind it is cell-based.

For `CCC(C)Nc1ccc(-c2cncnc2)nc1NC1CCCC1` (stereo not drawn) [Compound H-80, N^2-cyclopentyl-6-pyrimidin-5-yl-N^3-sec-butyl-pyridine-2,3-diamine], 7 nM corresponded to half-maximal inhibition (IC50).

For the setting “unit cell prints uM”, `CCCCC(=O)c1nc2c(c(Nc3ccccn3)n1)NCCC2` [Compound G-65, 1-[4-(2-pyridylamino)-5,6,7,8-tetrahydropyrido[3,2-d]pyrimidin-2-yl]pentan-1-one] yielded a half-inhibitory concentration (IC50) greater than 10000 nM.

Compound `CC1(Nc2nc(-c3ccc(F)cc3)ccc2NC2CCC2)CCOC1` (stereo not drawn) [Compound P-54, N^3-cyclobutyl-6-(4-fluorophenyl)-N^2-(3-methyltetrahydrofuran-3-yl)pyridine-2,3-diamine] gave an IC50 of 3 nM.

The compound `CCCCC(=O)c1cc2c(c(NC3CCCC3)c1)OCCC2` [Compound B-035, 1-[8-(cyclopentylamino)-3,4-dihydro-2H-1-benzopyran-6-yl]pentan-1-one] came in with an IC50 greater than 3000 nM.

`CCC(C)Nc1ccc(-c2ccc(C)cc2)nc1NC1CCCC1` (stereo not drawn) [Compound H-61, N^2-cyclopentyl-6-(p-tolyl)-N^3-sec-butyl-pyridine-2,3-diamine]: 7 nM corresponded to half-maximal inhibition (IC50).

Take `CCCCC(=O)c1cc2c(c(NC3CCCC3)n1)NCCC2` [Compound B-647, 1-[8-(cyclopentylamino)-1,2,3,4-tetrahydro-1,7-naphthyridin-6-yl]pentan-1-one]: the half-maximal inhibitory concentration (IC50) worked out at 8 nM.

As for `COc1ccc(-c2ccc(NC3COC3)c(NC3CCCC3)n2)cc1` [Compound H-87, N^2-cyclopentyl-6-(4-methoxyphenyl)-N^3-(oxetan-3-yl)pyridine-2,3-diamine], the IC50 amounted to 3 nM.

Take `CCC/C=C/c1nc(NC2CCOC2)c2c(n1)OCC(=O)N2` (stereo not drawn) [Compound B-603, 4-[(oxolan-3-yl)amino]-2-[(1E)-pent-1-en-1-yl]-5H,6H,7H-pyrimido[4,5-b][1,4]oxazin-6-one]: the IC50 is greater than 3000 nM.

Compound `CCC/C=C/c1nc2c(c(NC3CCCC3)n1)NCCC2` [Compound B-388, N-cyclopentyl-2-[(E)-pent-1-enyl]-5,6,7,8-tetrahydropyrido [3,2-d]pyrimidin-4-amine] registered an IC50 of 40 nM.

Compound `CC1=Nc2cc(C#N)ccc2NC1(C)C` [Compound Q-912, 2,2,3-trimethyl-1H-quinoxaline-6-carbonitrile] had an IC50 greater than 3000 nM.

Regarding `CCCCC(=O)c1cc2c(c(-c3ccncc3)c1)NCCC2` [Compound Q-950, 1-[8-(4-pyridyI)-1,2,3,4-tetrahydroquinolin-6-yl]pentan-1-one], the IC50 was greater than 3000 nM.

In turn, `CCCCCc1nc(NC2CCCC2)c2c(n1)OCCN2` [Compound B-711, N-cyclopentyl-2-pentyl-5H,6H,7H-pyrimido[4,5-b][1,4]oxazin-4-amine] returned an IC50 of 41 nM.

`CCOC(=O)c1cc(N)c2c(c1)OCCN2` [Compound H-85] had an IC50 greater than 1000 nM.

With `CC(C)(C)Nc1ccc(-c2ccncc2)nc1NC1CCCC1` [Compound L-04, N^3-tert-butyl-N^2-cyclopentyl-6-(4-pyridyl)pyridine-2,3-diamine], the IC50 is 5 nM.

Regarding `CCCCC(O)c1cc2c(c(NC(C)(C)C)n1)NCC(C(F)(F)F)C2` (stereo not drawn) [Compound R-812, 1-[8-(tert-butylamino)-3-(trifluoromethyl)-1,2,3,4-tetrahydro-1,7-naphthyridin-6-yl]pentan-1-ol], half-maximal inhibition (IC50) was put at 40 nM.

Regarding `CCCCC(=O)c1cc2c(c(N(S(=O)(=O)CC(C)C)S(=O)(=O)CC(C)C)c1)NCCC2` [Compound B-248, N-isobutylsulfonyl-2-methyl-N-(6-pentanoyl-1,2,3,4-tetrahydroquinolin-8-yl)propane-1-sulfonamide], the IC50 is greater than 3000 nM.

`CCCCC(=O)c1cc2c3c(c1)nc(C(F)(F)F)n3CCC2` [Compound B-099, 1-[2-(trifluoromethyl)-1,3-diazatricyclo[6.3.1.04,12]dodeca-2,4(12),5,7-tetraen-6-yl]pentan-1-one] registered an IC50 greater than 3000 nM.

The compound `CC(C)=Cc1nc(C)nc(NC2CCCC2)c1N` [Compound F-99, N^4-cyclopentyl-2-methyl-6-(2-methylprop-1-enyl)pyrimidine-4,5-diamine] gave an IC50 greater than 625 nM.

`Cc1ccc(-c2nc3c(c(NC4CCCC4)n2)NCCC3)cc1` [Compound A-32, N-cyclopentyl-2-(p-tolyl)-5,6,7,8-tetrahydropyrido[3,2-d]pyrimidin-4-amine] came in with an IC50 of 6 nM.

In turn, `Cc1ccc(-c2ccc(NC3COC3)c(NC3CCCC3)n2)cc1` [Compound H-81, N^2-cyclopentyl-N^3-(oxetan-3-yl)-6-(p-tolyl)pyridine-2,3-diamine] displayed an IC50 of 5 nM.

`CCCCC(OC)c1cc2c(c(Nc3ccccn3)c1)NCCC2` (stereo not drawn) [Compound B-397, 6-(1-methoxypentyI)-N-(2-pyridyl)-1,2,3,4-tetrahydroquinolin-8-amine] displayed an IC50 of 70 nM.

For the compound `CON(C)C(=O)c1ccc2c(c1)C=CC(C)(C)N2` [Compound B-065], the IC50 was greater than 3000 nM.

In the case of `Cc1ccc(-c2ccc(NC(C)(C)C)c(NC3CCCC3)n2)cc1` [Compound A-98, N^3-tert-butyl-N^2-cyclopentyl-6-(p-tolyl)pyridine-2,3-diamine], inhibition was half-maximal at 7 nM (IC50).

Regarding `CCC(C)Nc1ccc(-c2cccnc2)nc1NC1CCCC1` (stereo not drawn) [Compound H-74, N^2-cyclopentyl-6-(3-pyridyl)-N^3-sec-butyl-pyridine-2,3-diamine], the IC50 was 5 nM.

In the case of `c1ncc(-c2ncc(NC3COC3)c(NC3CCCC3)n2)cn1` [Compound F-82, N^4-cyclopentyl-N^5-(oxetan-3-yl)-2-pyrimidin-5-yl-pyrimidine-4,5-diamine], the IC50 was greater than 625 nM.

In turn, `CCOC(=O)c1cc2c(c(C(=O)C(F)(F)F)c1)NC(C)(C)C=C2` [Compound B-101, Ethyl 2,2-dimethyl-8-(2,2,2-trifluoroacetyl)-1,2-dihydroquinoline-6-carboxylate] returned an IC50 greater than 3000 nM.

As to `CC1(Nc2nc(-c3ccc(F)cc3)ccc2NC2CCOCC2)CCOC1` (stereo not drawn) [Compound N-53, 6-(4-fluorophenyl)-N^2-(3-methyltetrahydrofuran-3-yl)-N^3-tetrahydropyran-4-yl-pyridine-2,3-diamine], the IC50 is 1 nM.

Take `CCC(C)Nc1ccc(-c2ccncc2)nc1NC1CCCC1` (stereo not drawn) [Compound H-76, N^2-cyclopentyl-6-(4-pyridyl)-N^3-sec-butyl-pyridine-2,3-diamine]: the IC50 came out at 6 nM.

Where the note is “unit cell prints uM”, `CNC(=O)c1nc(-c2ccc(C)cc2)nc2c1NC(C)(C)N2C1CCCC1` [Compound K-34, 9-cyclopentyl-N,8,8-trimethyl-2-(p-tolyI)-5,7-dihydro-4H-purine-6-carboxamide] displayed an IC50 greater than 10000 nM.

`CCCCC(=O)c1cc2c(c(-n3ccnc3)c1)NCCC2` [Compound B-006, 1-(8-imidazol-1-yl-1,2,3,4-tetrahydroquinolin-6-yl)pentan-1-one] registered an IC50 greater than 3000 nM.

Consider `CCC(C)Nc1ccc(-c2ccc(C)cc2)nc1NC(C)(C)C` [Compound L-02, N^2-tert-butyl-6-(p-tolyl)-N^3-sec-butyl-pyridine-2,3-diamine], for which half-maximal inhibition (IC50) required 5 nM.

Take `CCCCC(O)c1nc2c(c(Nc3ccccn3)n1)NCCC2` (stereo not drawn) [Compound G-63, 1-[4-(2-pyridylamino)-5,6,7,8-tetrahydropyrido[3,2-d]pyrimidin-2-yl]pentan-1-ol]: where the note is “unit cell prints uM”, the IC50 is greater than 10000 nM.

Compound `CCCCC(=O)c1cc(F)c2c(c1)CCCN2` [Compound B-132] came in with a concentration for half-maximal inhibition (IC50) greater than 3000 nM.

(Values after patent US20230172940A1, “METHODS OF EXTENDING LIFESPAN BY ADMINISTERING FERROPTOSIS INHIBITORS” (COLLABORATIVE MEDICINAL DEVELOPMENT, LLC, priority 2020, published 2023).)
